According to ChEMBL document CHEMBL1201862, “PubChem BioAssay data set” (2004):
One block for each molecule: values may come before it. Activity calls are given as the source filed them.

Tests used:
[1] = biological target: ALK tyrosine kinase receptor (Homo sapiens, UniProt Q9UM73); type: functional;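 also: ALK tested as one member of a kinase panel screen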
Wee1-like protein kinase = Wee1-like protein kinase (Homo sapiens, UniProt P30291); experiment: Navigating the Kinome. Panel member name: WEE1; type: functional
[2] = biological target: Macrophage colony-stimulating factor 1 receptor (Homo sapiens, UniProt P07333); type: functional;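 also: value comes from the Navigating the Kinome screening panel, CSF1R member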
[3] = biological target: Serine/threonine-protein kinase Chk1 (Homo sapiens, UniProt O14757); type: functional;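 also: measured as one member of a kinome-wide kinase profiling panel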
LIM domain kinase 1 = LIM domain kinase 1 (Homo sapiens, UniProt P53667); experiment: Navigating the Kinome. Panel member name: LIMK1; type: functional
[4] = biological target: T1, High affinity choline transporter 1 (Homo sapiens, UniProt Q9GZV3); experiment: CHT inhibitors, dose response, cell-based, 10-point CRC, membrane potential dye (AID 588401); type: functional;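 also: membrane potential dye fluorescence of choline-evoked depolarization via CHT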
T1 sequence (Q9GZV3 whole entry): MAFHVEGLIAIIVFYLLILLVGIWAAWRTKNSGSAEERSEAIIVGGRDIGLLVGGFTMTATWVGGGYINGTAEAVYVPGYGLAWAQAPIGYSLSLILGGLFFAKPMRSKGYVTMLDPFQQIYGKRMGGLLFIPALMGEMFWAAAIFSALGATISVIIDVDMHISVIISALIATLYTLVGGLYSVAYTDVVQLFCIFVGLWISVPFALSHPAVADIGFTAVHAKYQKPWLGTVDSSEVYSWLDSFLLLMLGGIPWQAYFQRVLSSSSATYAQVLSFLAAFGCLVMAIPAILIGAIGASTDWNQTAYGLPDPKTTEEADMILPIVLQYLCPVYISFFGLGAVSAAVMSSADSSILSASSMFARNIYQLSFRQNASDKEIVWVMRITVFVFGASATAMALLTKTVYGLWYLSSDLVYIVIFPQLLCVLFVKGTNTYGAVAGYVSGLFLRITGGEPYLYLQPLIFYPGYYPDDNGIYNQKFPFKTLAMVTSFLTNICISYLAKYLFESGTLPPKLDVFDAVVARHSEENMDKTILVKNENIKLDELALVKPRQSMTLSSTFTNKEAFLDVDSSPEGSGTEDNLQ

[5] = biological target: T1, High affinity choline transporter 1; experiment: CHT inhibitors, dose response, cell-based, 5-point CRC, membrane potential dye (AID 504840); type: functional
[6] = biological target: FAD-linked sulfhydryl oxidase ALR (Homo sapiens, UniProt P55789); experiment: inhibitors of human ALR sulfhydryl oxidase, dose response, biochemical, H2O2 detection, luminescence, cherry-pick (AID 493248)
Aurora kinase B = Aurora kinase B (Homo sapiens, UniProt Q96GD4); type: functional
[7] = biological target: Serine/threonine-protein kinase pim-1 (Homo sapiens, UniProt P11309); type: functional
[8] = biological target: Casein kinase II subunit alpha (Homo sapiens, UniProt P68400); type: functional
[9] = biological target: Mitogen-activated protein kinase kinase kinase kinase 5 (Homo sapiens, UniProt Q9Y4K4); type: functional;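 also: measured as one member of a kinome-spanning kinase panel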
[10] = biological target: Neuropeptides B/W receptor type 1 (Homo sapiens, UniProt P48145); experiment: GPR7 antagonist potency, late-stage follow-up, cell-based, fluorescence, dose response, set 5 (AID 588566); type: functional
[11] = biological target: Melanin-concentrating hormone receptor 1 (Homo sapiens, UniProt Q99705); experiment: Late-stage fluorescence-based counterscreen for antagonists of the G-protein coupled receptor 7 (GPR7): cell-based dose response assay to identify antagonists of the melanin-concentrating hormone receptor 1 (MCHR1) Set 5.; type: functional
[12] = biological target: High affinity nerve growth factor receptor (Homo sapiens, UniProt P04629); type: functional;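 also: NTRK1 tested as one member of a kinome-wide profiling panel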
[13] = biological target: Leukocyte tyrosine kinase receptor (Homo sapiens, UniProt P29376); experiment: Navigating the Kinome. Panel member name: LTK; type: functional
[14] = biological target: Hepatocyte growth factor receptor (Homo sapiens, UniProt P08581); type: functional;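 also: kinase panel profiling across the kinome, with MET as the panel member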
[15] = biological target: Cyclin-dependent kinase 19 (Homo sapiens, UniProt Q9BWU1); experiment: Navigating the Kinome. Panel member name: CDC2L6; type: functional
[16] = biological target: MAP kinase-activated protein kinase 3 (Homo sapiens, UniProt Q16644); type: functional;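 also: value comes from a kinome-wide profiling panel in which MAPKAPK3 is one of the panel members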
[17] = biological target: Lymphokine-activated killer T-cell-originated protein kinase (Homo sapiens, UniProt Q96KB5); type: functional;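 also: value comes from a kinase panel screen in which TOPK was one of the panel members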
Chain of Lymphokine-activated killer T-cell-originated protein kinase (Q96KB5 whole entry): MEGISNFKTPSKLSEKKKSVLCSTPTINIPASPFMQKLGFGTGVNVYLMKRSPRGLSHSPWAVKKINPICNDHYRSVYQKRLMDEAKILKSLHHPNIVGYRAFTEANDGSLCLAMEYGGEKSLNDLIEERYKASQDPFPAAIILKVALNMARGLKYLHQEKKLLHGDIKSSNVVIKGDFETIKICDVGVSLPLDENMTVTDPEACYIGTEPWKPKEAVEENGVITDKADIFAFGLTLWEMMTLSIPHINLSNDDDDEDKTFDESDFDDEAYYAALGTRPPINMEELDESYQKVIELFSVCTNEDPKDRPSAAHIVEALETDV

Chain of Serine/threonine-protein kinase pim-1 (P11309 whole entry): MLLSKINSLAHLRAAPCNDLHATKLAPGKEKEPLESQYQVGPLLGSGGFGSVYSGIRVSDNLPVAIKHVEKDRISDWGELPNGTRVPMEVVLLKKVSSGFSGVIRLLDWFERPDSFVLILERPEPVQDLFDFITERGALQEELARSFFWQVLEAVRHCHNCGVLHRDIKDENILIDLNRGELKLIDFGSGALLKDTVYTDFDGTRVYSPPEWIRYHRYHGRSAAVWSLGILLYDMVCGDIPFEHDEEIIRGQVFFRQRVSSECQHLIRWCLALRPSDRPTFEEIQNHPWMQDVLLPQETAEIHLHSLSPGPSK
Chain of Melanin-concentrating hormone receptor 1 (Q99705 whole entry): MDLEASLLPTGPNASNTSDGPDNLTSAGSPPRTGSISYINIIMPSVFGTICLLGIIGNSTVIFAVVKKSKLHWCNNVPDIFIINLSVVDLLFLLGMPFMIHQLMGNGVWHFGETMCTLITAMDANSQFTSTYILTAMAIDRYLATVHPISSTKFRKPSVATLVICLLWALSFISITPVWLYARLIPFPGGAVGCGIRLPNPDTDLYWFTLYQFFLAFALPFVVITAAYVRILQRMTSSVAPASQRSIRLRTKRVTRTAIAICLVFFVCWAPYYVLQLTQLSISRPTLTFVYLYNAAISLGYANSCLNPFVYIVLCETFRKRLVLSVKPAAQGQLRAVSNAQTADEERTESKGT
Chain of Hepatocyte growth factor receptor (P08581 whole entry): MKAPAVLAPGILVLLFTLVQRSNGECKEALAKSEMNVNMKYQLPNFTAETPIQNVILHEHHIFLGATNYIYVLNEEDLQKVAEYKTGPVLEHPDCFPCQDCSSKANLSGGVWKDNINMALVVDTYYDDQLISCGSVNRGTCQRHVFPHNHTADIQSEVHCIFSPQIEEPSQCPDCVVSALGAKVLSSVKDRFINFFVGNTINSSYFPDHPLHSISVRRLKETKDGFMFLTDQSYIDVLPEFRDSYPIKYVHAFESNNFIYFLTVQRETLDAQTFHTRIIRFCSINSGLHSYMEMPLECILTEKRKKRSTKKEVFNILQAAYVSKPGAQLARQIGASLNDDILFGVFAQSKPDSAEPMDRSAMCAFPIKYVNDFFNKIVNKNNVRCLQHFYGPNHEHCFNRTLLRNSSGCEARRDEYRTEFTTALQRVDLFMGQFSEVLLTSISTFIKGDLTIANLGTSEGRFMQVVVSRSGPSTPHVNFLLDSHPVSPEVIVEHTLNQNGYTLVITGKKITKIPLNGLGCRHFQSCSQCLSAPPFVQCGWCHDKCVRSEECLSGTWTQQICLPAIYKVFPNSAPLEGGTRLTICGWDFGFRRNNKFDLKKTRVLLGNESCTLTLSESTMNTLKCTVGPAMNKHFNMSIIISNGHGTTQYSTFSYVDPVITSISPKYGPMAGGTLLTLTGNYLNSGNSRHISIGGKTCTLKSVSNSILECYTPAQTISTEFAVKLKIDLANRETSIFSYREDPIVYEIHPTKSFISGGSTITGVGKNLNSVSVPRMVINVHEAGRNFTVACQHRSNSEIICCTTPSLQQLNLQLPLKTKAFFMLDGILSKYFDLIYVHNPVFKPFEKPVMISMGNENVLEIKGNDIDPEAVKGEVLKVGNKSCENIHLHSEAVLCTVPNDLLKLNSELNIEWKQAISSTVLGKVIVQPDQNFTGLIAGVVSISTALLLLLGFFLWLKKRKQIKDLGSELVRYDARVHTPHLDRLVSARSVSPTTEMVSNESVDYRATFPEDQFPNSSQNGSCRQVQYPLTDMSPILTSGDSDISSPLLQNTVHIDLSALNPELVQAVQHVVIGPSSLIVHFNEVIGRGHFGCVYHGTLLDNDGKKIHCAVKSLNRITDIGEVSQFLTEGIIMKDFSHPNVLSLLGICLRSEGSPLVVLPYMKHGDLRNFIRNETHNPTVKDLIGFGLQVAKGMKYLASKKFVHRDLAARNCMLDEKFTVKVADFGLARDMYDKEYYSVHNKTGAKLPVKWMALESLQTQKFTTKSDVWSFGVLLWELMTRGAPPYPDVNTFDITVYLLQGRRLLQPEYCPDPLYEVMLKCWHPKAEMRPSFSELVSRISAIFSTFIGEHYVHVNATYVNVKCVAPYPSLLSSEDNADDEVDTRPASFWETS
Chain of Neuropeptides B/W receptor type 1 (P48145 whole entry): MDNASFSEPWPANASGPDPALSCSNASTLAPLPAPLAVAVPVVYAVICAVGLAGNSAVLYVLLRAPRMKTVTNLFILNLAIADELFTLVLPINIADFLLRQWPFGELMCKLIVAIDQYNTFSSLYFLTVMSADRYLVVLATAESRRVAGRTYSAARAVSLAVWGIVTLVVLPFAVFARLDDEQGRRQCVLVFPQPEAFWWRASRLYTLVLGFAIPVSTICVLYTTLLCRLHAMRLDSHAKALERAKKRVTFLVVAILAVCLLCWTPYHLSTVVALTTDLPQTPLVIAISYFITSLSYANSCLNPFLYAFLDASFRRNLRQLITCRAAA
Chain of FAD-linked sulfhydryl oxidase ALR (P55789 whole entry): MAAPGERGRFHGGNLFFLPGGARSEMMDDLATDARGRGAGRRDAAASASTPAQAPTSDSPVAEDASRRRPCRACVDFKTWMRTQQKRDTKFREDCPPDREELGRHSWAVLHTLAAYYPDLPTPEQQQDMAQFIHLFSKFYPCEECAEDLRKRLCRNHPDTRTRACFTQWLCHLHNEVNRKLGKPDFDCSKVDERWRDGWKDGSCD
Chain of Mitogen-activated protein kinase kinase kinase kinase 5 (Q9Y4K4 whole entry): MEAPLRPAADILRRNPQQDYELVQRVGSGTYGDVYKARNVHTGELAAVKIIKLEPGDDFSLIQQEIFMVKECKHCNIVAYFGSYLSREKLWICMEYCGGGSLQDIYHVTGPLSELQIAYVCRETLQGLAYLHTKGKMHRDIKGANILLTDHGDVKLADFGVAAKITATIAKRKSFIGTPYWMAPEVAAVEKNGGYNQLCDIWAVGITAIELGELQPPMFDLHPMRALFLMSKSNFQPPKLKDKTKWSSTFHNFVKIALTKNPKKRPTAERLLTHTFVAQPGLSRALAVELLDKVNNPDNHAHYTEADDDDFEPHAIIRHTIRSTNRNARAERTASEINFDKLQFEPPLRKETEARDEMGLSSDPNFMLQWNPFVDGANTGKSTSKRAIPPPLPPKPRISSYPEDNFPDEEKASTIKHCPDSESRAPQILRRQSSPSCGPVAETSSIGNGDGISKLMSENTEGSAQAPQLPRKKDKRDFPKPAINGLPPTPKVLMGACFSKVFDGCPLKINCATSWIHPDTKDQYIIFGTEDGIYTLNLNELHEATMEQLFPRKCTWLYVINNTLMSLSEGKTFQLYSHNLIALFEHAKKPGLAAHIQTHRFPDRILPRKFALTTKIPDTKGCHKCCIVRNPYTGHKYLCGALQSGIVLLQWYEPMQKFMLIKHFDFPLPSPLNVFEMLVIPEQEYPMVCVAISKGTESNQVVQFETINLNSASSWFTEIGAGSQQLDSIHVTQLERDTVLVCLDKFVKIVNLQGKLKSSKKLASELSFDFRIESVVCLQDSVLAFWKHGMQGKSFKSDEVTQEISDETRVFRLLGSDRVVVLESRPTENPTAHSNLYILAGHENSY
Chain of Aurora kinase B (Q96GD4 whole entry): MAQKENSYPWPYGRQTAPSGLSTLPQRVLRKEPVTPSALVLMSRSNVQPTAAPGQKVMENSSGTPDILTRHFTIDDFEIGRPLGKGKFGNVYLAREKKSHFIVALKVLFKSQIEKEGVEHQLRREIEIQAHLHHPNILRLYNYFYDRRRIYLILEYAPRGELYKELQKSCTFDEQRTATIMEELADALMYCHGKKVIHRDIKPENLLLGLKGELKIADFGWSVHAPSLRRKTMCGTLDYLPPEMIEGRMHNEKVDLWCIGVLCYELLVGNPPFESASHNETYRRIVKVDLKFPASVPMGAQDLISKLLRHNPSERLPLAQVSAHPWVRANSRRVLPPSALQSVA
Chain of LIM domain kinase 1 (P53667 whole entry, the tested form may be a part): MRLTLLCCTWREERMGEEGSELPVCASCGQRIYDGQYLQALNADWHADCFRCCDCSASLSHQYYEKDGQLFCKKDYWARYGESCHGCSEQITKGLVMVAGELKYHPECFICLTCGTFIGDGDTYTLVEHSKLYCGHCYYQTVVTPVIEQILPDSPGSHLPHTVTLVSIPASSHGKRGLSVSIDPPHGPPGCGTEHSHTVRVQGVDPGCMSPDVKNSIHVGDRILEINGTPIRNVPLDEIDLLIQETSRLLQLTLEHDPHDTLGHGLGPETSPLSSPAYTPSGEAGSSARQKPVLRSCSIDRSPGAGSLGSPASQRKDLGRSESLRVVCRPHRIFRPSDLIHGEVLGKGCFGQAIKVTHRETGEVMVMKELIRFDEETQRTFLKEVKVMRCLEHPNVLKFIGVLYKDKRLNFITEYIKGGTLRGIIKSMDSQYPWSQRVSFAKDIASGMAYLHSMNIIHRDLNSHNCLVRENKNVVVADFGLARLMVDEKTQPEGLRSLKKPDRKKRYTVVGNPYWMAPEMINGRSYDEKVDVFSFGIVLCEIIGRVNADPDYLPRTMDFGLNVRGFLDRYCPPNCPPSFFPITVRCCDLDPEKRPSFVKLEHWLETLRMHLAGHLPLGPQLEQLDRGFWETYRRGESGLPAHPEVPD

Ki [2]: > 100000 nM (inactive) | Ki [3]: 25100 nM (active) | Ki (LIM domain kinase 1): 10000 nM (active)
Structure (SMILES): c1ccc(-c2ncc3ccccn23)cc1

Ki (Aurora kinase B): 1580 nM (active) | Ki [7]: 1580 nM (active) | Ki [8]: 3980 nM (active) | Ki [9]: 2000 nM (active)
Structure (SMILES): COc1ccc(C=C2C(=O)ON=C2c2ccc(Br)cc2)cc1

IC50 [10]: 887 nM (active) | IC50 [11]: > 20000 nM (inactive)
Structure (SMILES): CCOc1ccc(Sc2c(Cl)cnn(Cc3cccc4ccccc34)c2=O)cc1

Ki [16]: > 10000 nM (inactive)
Structure (SMILES): COc1cc2ncnc(Nc3ccc(F)c(Cl)c3)c2cc1OCCCN1CCOCC1 [GEFITINIB]
Ki [17]: > 10000 nM (inactive)

The remaining lines, values behind:

Structure (SMILES): CNc1nc(C)c(-c2ccnc(Nc3ccc(N4CCN(C(C)=O)CC4)cc3)n2)s1
Ki [1]: 2510 nM (active) | Ki (Wee1-like protein kinase): 200 nM (active)

Structure (SMILES): Oc1ccc(CC2CC3CCN2CC3)cc1O (stereo unspecified)
IC50 [4]: 1150 nM (active) | IC50 [5]: 1080 nM (active) | AC50 [6]: 3810 nM (active)

Structure (SMILES): CCc1cc(-c2n[nH]c(C)c2-c2ccc3c(c2)OCCO3)c(O)cc1O
Ki [7]: 1580 nM (active) | Ki [12]: > 15800 nM (inactive) | Ki [13]: 2510 nM (active) | Ki [14]: 2510 nM (active) | Ki [15]: > 100000 nM (inactive)
